Experimental data: US12275745B2, “Therapeutic compounds and methods of use” (Genentech, Inc., priority 2021, dated 2025)

How the values were obtained:
TEAD1 = TEAD1 (Homo sapiens, UniProt P28347); test: TR-FRET (Lipid HTRF) TEAD lipid pocket probe displacement assay, TEAD1; type: binding; conditions: His-tagged TEAD1, biotinylated lipid pocket probe, 4 hours
Description: (§1) His-tagged TEAD proteins are pre-incubated with TEAD project compounds for 30 minutes or 4 hours at room temperature. Biotinylated lipid pocket probes are then added to the TEAD/Compound mixture and incubated for 60 minutes at room temperature. The lipid pocket probe competes with the test compound for the TEAD lipid pocket until equilibrium is reached. After 60 minutes, Europium labelled anti-His (Perkin Elmer #AD0110) and XL665 labelled streptavidin (CIS Bio 610SAXAC) are added to the TEAD/test compound/lipid pocket mixture and incubated for 30 minutes or 4 hours. TR-FRET values are then measured using an EnVision multi-label plate reader (Perkin Elmer Cat #2104-001 0A.) If the lipid pocket probe binds to TEAD as expected, a TR-FRET signal results from the proximity of anti-His Eu and XL665. If a TEAD lipid pocket binder such as binds and displaces the lipid pocket probe, the disruption of the TEAD:probe interaction results in a decrease in TR-FRET signal. The potency of compounds as TEAD lipid pocket binders is determined by IC50 value generated using a non-linear 4 parameter curve fit.

TEAD2 = TEAD2 (Homo sapiens, UniProt Q15562); test: biochemical;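 further: TR-FRET competition assay with His-tagged TEAD protein and a biotinylated lipid pocket probe, where probe displacement by compound lowers the signal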
TEAD3 = TEAD3 (Homo sapiens, UniProt Q99594); test: TR-FRET (Lipid HTRF) TEAD lipid pocket probe displacement assay, TEAD3; type: binding; conditions: His-tagged TEAD3, biotinylated lipid pocket probe, 4 hours
Description: as §1

TEAD4 = TEAD4 (Homo sapiens, UniProt Q15561); test: TR-FRET (Lipid HTRF) TEAD lipid pocket probe displacement assay, TEAD4; type: binding; conditions: His-tagged TEAD4, biotinylated lipid pocket probe, 4 hours
TEAD4, sequence (Q15561 whole entry, species assumed): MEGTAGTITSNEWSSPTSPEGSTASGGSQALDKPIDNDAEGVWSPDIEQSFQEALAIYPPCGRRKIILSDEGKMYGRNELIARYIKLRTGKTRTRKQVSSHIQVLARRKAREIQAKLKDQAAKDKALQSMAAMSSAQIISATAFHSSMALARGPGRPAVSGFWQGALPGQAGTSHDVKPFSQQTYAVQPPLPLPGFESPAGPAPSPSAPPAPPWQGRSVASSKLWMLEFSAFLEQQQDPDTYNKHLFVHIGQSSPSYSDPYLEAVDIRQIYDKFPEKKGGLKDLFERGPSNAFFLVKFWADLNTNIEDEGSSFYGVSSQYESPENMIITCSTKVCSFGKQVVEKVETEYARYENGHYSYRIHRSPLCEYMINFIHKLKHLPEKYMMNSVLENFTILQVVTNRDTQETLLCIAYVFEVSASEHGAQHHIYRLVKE
Description: as §1

TEAD1, sequence (P28347 whole entry, species assumed): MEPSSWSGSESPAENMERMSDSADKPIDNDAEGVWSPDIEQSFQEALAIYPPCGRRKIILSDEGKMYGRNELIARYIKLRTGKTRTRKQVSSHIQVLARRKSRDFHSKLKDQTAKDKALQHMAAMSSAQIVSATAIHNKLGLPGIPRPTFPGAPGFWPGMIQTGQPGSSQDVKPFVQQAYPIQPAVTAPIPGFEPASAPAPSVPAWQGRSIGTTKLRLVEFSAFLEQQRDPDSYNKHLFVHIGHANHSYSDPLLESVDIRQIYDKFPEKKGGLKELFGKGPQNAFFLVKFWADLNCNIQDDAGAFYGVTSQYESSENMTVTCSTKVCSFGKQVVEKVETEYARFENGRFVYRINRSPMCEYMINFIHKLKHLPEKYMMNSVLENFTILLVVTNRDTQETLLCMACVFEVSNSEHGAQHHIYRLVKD
TEAD3, sequence (Q99594 whole entry, species assumed): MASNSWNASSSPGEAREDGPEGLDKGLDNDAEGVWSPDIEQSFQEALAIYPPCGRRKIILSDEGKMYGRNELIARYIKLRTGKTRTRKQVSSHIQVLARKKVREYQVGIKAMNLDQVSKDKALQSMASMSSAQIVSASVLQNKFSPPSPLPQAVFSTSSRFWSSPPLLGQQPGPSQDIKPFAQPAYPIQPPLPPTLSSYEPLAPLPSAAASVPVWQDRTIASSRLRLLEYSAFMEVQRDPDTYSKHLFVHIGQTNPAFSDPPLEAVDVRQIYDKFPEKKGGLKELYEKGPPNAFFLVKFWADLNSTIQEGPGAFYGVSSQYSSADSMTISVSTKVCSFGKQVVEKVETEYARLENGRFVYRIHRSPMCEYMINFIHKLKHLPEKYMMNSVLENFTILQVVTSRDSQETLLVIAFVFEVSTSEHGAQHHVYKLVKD
TEAD2, sequence (Q15562 whole entry, species assumed): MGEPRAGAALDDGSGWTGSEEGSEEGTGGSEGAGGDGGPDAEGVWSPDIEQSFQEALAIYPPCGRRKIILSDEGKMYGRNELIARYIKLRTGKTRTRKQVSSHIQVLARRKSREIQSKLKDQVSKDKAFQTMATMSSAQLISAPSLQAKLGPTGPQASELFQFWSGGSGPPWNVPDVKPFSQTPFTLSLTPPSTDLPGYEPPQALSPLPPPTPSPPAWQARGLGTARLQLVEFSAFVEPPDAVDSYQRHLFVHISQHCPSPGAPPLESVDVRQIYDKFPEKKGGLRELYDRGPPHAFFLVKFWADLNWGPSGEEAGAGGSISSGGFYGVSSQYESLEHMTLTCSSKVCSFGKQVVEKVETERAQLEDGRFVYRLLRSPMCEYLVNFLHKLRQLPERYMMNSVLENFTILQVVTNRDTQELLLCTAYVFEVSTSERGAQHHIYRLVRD

SMILES	IC50 (TEAD1) [µM]	IC50 (TEAD2) [µM]	IC50 (TEAD3) [µM]	IC50 (TEAD4) [µM]
C=CC(=O)NCc1cc(Oc2ccc(C(F)(F)F)cc2)c2ncccc2c1[C@H](O)CO (single isomer, unassigned) [Compound 147]	0.11	0.019	0.61	0.89
C=CC(=O)NCc1cc(Oc2ccc(C(F)(F)F)cc2)c2ncccc2c1[C@@H](O)CO (single isomer, unassigned) [Compound 148]	0.036	0.0087	0.47	0.54
C=CC(=O)NCc1cc(-c2ccc(S(F)(F)(F)(F)F)cc2)c2c(c1[C@H](O)CO)CCO2 (stereo in doubt) [Compound 96, N-[[7-[4-(Pentafluoro-6-sulfanyl)phenyl]-4-[rac-(1R)-l,2-dihydroxyethyl]-2,3-dihydrobenzofuran-5-yl]methyl]prop-2-enamide]	0.043	0.033	0.072	0.023
C=CC(=O)NCc1cc(-c2ccc(OC(F)(F)F)cc2)c2nccn2c1CO [Compound 5, N-((5-(hydroxymethyl)-8-(4-(trifluoromethoxy)phenyl)imidazo[1,2-a]pyridin-6-yl)methyl)acrylamide]	0.127	0.227	0.29	0.27
C=CC(=O)NCc1nc(-c2ccc(OC(F)(F)F)cc2)c2occc2n1 [Compound 10, N-[[4-[4-(trifluoromethoxy)phenyl]furo[3,2-d]pyrimidin-2-yl]methyl]prop-2-enamide]	0.14	1.3	0.41	0.094
C=CC(=O)N(C)Cc1nc(-c2ccc(OC(F)(F)F)cc2)c2ncsc2n1 [Compound 11, N-methyl-N-[[7-[4-(trifluoromethoxy)phenyl]thiazolo[5,4-d]pyrimidin-5-yl]methyl]prop-2-enamide]	0.078	0.1	0.074	0.0081
C=CC(=O)NCc1nc2c(c(-c3ccc(OC(F)(F)F)cc3)n1)OCC2 [Compound 13, N-[[4-[4-(trifluoromethoxy)phenyl]-6,7-dihydrofuro[3,2-d]pyrimidin-2-yl]methyl]prop-2-enamide]	0.086	0.32	0.17	0.035
C=CC(=O)NCc1cc(-c2ccc(OC(F)(F)F)cc2)c2c(c1-n1ccnc1)CCO2 [Compound 23, N-((4-(1H-Imidazol-1-yl)-7-(4-(trifluoromethoxy)phenyl)-2,3-dihydrobenzofuran-5-yl)methyl)acrylamide]	0.69	0.37	3.9	0.16
C=CC(=O)NCc1cc(-c2ccc(OC(F)(F)F)cc2)c2nccn2c1CC [Compound 26, N-((5-ethyl-8-(4-(trifluoromethoxy)phenyl)imidazo[1,2-a]pyridin-6-yl)methyl)acrylamide]	0.14	0.062	0.51	0.18
C=CC(=O)NCc1cc(-c2ccc(OC(F)(F)F)cc2)c2ncn(C)c2c1Cc1cn[nH]c1 [Compound 34, N-[[3-methyl-4-(1H-pyrazol-4-ylmethyl)-7-[4-(trifluoromethoxy)phenyl]benzimidazol-5-yl]methyl]prop-2-enamide]	0.19	0.059	3.6	0.062
C=CC(=O)N(C)Cc1cc(-c2ccc(OC(F)(F)F)cc2)c2nccn2c1CO [Compound 36, N-[[5-(hydroxymethyl)-8-[4-(trifluoromethoxy)phenyl]imidazo[1,2-a]pyridin-6-yl]methyl]-N-methyl-prop-2-enamide]	0.044	0.1	0.089	0.037
C=CC(=O)NCc1cc(-c2ccc(OC(F)(F)F)cc2)c2nccn2c1 [Compound 37, N-[[8-[4-(trifluoromethoxy)phenyl]imidazo[1,2-a]pyridin-6-yl]methyl]prop-2-enamide]	0.1	0.96	0.23	0.082
C=C(F)C(=O)NCc1cc(-c2ccc(OC(F)(F)F)cc2)c2ncn(C)c2c1CO [Compound 63, 2-fluoro-N-[[4-(hydroxymethyl)-3-methyl-7-[4-(trifluoromethoxy)phenyl]benzimidazol-5-yl]methyl]prop-2-enamide]	0.11	0.076	0.31	0.08
CN(Cc1cc(-c2ccc(OC(F)(F)F)cc2)c2ncn(C)c2c1CO)C(=O)/C=C/CO [Compound 64, (E)-4-hydroxy-N-[[4-(hydroxymethyl)-3-methyl-7-[4-(trifluoromethoxy)phenyl]benzimidazol-5-yl]methyl]-N-methyl-but-2-enamide]	0.27	0.51	0.7	0.044
C=C(F)C(=O)NCc1cc(-c2ccc(OC(F)(F)F)cc2)c2c(c1C#N)CCO2 [Compound 67, N-[[4-cyano-7-[4-(trifluoromethoxy)phenyl]-2,3-dihydrobenzofuran-5-yl]methyl]-2-fluoro-prop-2-enamide]	0.093	0.34	0.42	0.14
C=CC(=O)NCc1nc(-c2ccc(OC(F)(F)F)cc2)c2ncn(C)c2n1 [Compound 69, N-[[9-methyl-6-[4-(trifluoromethoxy)phenyl]purin-2-yl]methyl]prop-2-enamide]	0.04	0.1	0.097	0.0075
C=CC(=O)NCc1nc(-c2ccc(OC(F)(F)F)cc2)c2ncn(C)c2c1CO [Compound 73, N-((7-(hydroxymethyl)-1-methyl-4-(4-(trifluoromethoxy)phenyl)-1H-imidazo[4,5-c]pyridin-6-yl)methyl)acrylamide]	0.058	0.04	0.22	0.039

Compounds with a lower IC50 (TEAD1), results first:

IC50 (TEAD1) [µM]	IC50 (TEAD2) [µM]	IC50 (TEAD3) [µM]	IC50 (TEAD4) [µM]	SMILES
0.027	0.019	0.59	0.018	C=CC(=O)NCc1cc(-c2ccc(S(F)(F)(F)(F)F)cc2)c2c(c1[C@@H](O)CO)CCO2 (stereo in doubt) [Compound 97, N-[[7-[4-(pentafluoro-6-sulfanyl)phenyl]-4-[rac-(1S)-1,2-dihydroxyethyl]-2,3-dihydrobenzofuran-5-yl]methyl]prop-2-enamide]
0.018	0.64	0.23	0.04	C=CC(=O)NCc1nc(-c2ccc(OC(F)(F)F)cc2)c2ccccc2n1 [Compound 7, N-((4-(4-(trifluoromethoxy)phenyl)quinazolin-2-yl)methyl)acrylamide]
0.024	0.051	0.037	0.037	C=CC(=O)NCc1cc(-c2ccc(OC(F)(F)F)cc2)c2ncccc2c1C#N [Compound 16, N-[[5-cyano-8-[4-(trifluoromethoxy)phenyl]-6-quinolyl]methyl]prop-2-enamide]
0.032	0.12	0.039	0.027	C=CC(=O)NCc1cc(-c2ccc(S(F)(F)(F)(F)F)cc2)c2c(c1CO)CCO2 [Compound 24, N-((4-(Hydroxymethyl)-7-(4-(pentafluoro-16-sulfaneyl)phenyl)-2,3-dihydrobenzofuran-5-yl)methyl)acrylamide]
0.011	0.73	0.79	0.33	C=CC(=O)NCc1nc(-c2ccc(OC(F)(F)F)cc2)c2nc(C)sc2n1 [Compound 35, N-[[2-methyl-7-[4-(trifluoromethoxy)phenyl]thiazolo[5,4-d]pyrimidin-5-yl]methyl]prop-2-enamide]
0.02	0.033	0.026	0.0068	C=CC(=O)N(C)Cc1cc(-c2ccc(OC(F)(F)F)cc2)c2nccn2c1 [Compound 38, N-methyl-N-[[8-[4-(trifluoromethoxy)phenyl]imidazo[1,2-a]pyridin-6-yl]methyl]prop-2-enamide]
0.008	0.009	0.0505	0.0245	C=CC(=O)NCc1cc(-c2ccc(OC(F)(F)F)cc2)c2ncn(C(F)F)c2c1CO [Compound 39, N-[[3-(difluoromethyl)-4-(hydroxymethyl)-7-[4-(trifluoromethoxy)phenyl]benzimidazol-5-yl]methyl]prop-2-enamide]
0.01	0.0098	0.022	0.016	C=CC(=O)NCc1cc(-c2ccc(OC(F)(F)F)cc2)c2cccnc2c1C [Compound 43, N-[[8-methyl-5-[4-(trifluoromethoxy)phenyl]-7-quinolyl]methyl]prop-2-enamide]
0.011	0.016	0.018	0.054	C=CC(=O)NCc1cc(-c2ccc(OC(F)(F)F)cc2)c2cccnc2c1CO [Compound 44, N-[[8-(hydroxymethyl)-5-[4-(trifluoromethoxy)phenyl]-7-quinolyl]methyl]prop-2-enamide]
0.012	0.011	0.037	0.034	C=CC(=O)NCc1cc(-c2ccc(OC(F)(F)F)cc2)c2ncccc2c1CO [Compound 50, N-[[5-(hydroxymethyl)-8-[4-(trifluoromethoxy)phenyl]-6-quinolyl]methyl]prop-2-enamide]
0.018	0.037	0.38	0.081	C=C(F)C(=O)N1CC(c2cc(-c3ccc(OC(F)(F)F)cc3)c3ncn(C)c3c2CO)C1 [Compound 59, 2-fluoro-1-[3-[4-(hydroxymethyl)-3-methyl-7-[4-(trifluoromethoxy)phenyl]benzimidazol-5-yl]azetidin-1-yl]prop-2-en-1-one]
0.011	0.004	0.11	0.0025	C=CC(=O)NCc1cc(-c2ccc(OC(F)(F)F)cc2)c2ncn(C)c2c1C(F)F [Compound 77, N-[[4-(difluoromethyl)-3-methyl-7-[4-(trifluoromethoxy)phenyl]benzimidazol-5-yl]methyl]prop-2-enamide]
